Results as given in US12568972B2, “Pyridazinol compounds and derivatives, preparation methods, herbicidal compositions and applications thereof” (Qingdao Kingagroot Chemical Compound Co., Ltd., priority 2018, dated 2026).

Legend:
Assay in all cases: Post-emergence test, weed control effect
Format in all cases: in vivo
Details in all cases: Dose 3000 g/ha, after 3 weeks
Amaranthus retroflexus = test system: Amaranthus retroflexus
Description: (§1) The activity level standard of harmful plant destruction (i.e. growth inhibition rate) is as follows: • Level 10: completely dead; • Level 9: above 90% growth inhibition rate; • Level 8: above 80% growth inhibition rate; • Level 7: above 70% growth inhibition rate; • Level 6: above 60% growth inhibition rate; • Level 5: above 50% growth inhibition rate; • Level 4: above 40% growth inhibition rate; • Level 3: above 30% growth inhibition rate; • Level 2: above 20% growth inhibition rate; • Level 1: below 20% growth inhibition rate; • Level 0: no effect.
(§2) The above described growth inhibition rates are fresh weight inhibition rates.
(§3) Experiment of post-emergence test: monocotyledonous and dicotyledonous weed seeds as well as main crop seeds (i.e., wheat, corn, rice, soybean, cotton, oilseed rape, millet and sorghum) were put into a plastic pot loaded with soil, then covered with 0.5-2 cm of soil, and the seeds were allowed to grow in good greenhouse environment. The test plants were treated at 2-3 leaf stage 2-3 weeks after sowing. The test compounds of the invention were dissolved in acetone respectively, then added with Tween-80 and diluted by a certain amount of water to give solutions with certain concentrations, and added with 80% vegetable oil methyl ester synergist at 1500 g/ha. The solution was sprayed to the plants with a sprayer. The plants were cultured for 3 weeks in the greenhouse.

Chenopodiaceae = test system: Chenopodiaceae
Description: as §1, §2, §3

Rorippa indica = test system: Rorippa indica
Description: as §1, §2, §3

Veronica polita = test system: Veronica polita
Description: as §1, §2, §3

O=C(Cc1ccccc1)Oc1cc(C(F)(F)F)nnc1-c1ccc(F)c(F)c1 [Compound 1-94]
10: weed control effect, Amaranthus retroflexus (activity level) (Amaranthus retroflexus) | weed control effect, Chenopodiaceae (activity level) (Chenopodiaceae) | weed control effect, Rorippa indica (activity level) (Rorippa indica) | weed control effect, Veronica polita (activity level) (Veronica polita)

O=C(CSc1ccccc1)Oc1cc(C(F)(F)F)nnc1-c1ccc(F)c(F)c1 [Compound 1-95]
10: weed control effect, Amaranthus retroflexus (activity level) (Amaranthus retroflexus) | weed control effect, Chenopodiaceae (activity level) (Chenopodiaceae) | weed control effect, Rorippa indica (activity level) (Rorippa indica) | weed control effect, Veronica polita (activity level) (Veronica polita)

O=C(/C=C\c1ccccc1)Oc1cc(C(F)(F)F)nnc1-c1ccc(Cl)cc1 [Compound 1-96]
10: weed control effect, Amaranthus retroflexus (activity level) (Amaranthus retroflexus) | weed control effect, Chenopodiaceae (activity level) (Chenopodiaceae) | weed control effect, Rorippa indica (activity level) (Rorippa indica) | weed control effect, Veronica polita (activity level) (Veronica polita)

O=C(/C=C/c1ccc(Cl)cc1)Oc1cc(C(F)(F)F)nnc1-c1ccc(F)cc1 [Compound 1-97]
10: weed control effect, Amaranthus retroflexus (activity level) (Amaranthus retroflexus) | weed control effect, Chenopodiaceae (activity level) (Chenopodiaceae) | weed control effect, Rorippa indica (activity level) (Rorippa indica) | weed control effect, Veronica polita (activity level) (Veronica polita)

O=C(CCc1ccccc1)Oc1cc(C(F)(F)F)nnc1-c1ccc(F)c(F)c1 [Compound 1-98]
10: weed control effect, Amaranthus retroflexus (activity level) (Amaranthus retroflexus) | weed control effect, Chenopodiaceae (activity level) (Chenopodiaceae) | weed control effect, Rorippa indica (activity level) (Rorippa indica) | weed control effect, Veronica polita (activity level) (Veronica polita)

O=C(CCc1ccccc1)Oc1cc(C(F)(F)F)nnc1-c1ccc(F)cc1 [Compound 1-99]
10: weed control effect, Amaranthus retroflexus (activity level) (Amaranthus retroflexus) | weed control effect, Chenopodiaceae (activity level) (Chenopodiaceae) | weed control effect, Rorippa indica (activity level) (Rorippa indica) | weed control effect, Veronica polita (activity level) (Veronica polita)

O=C(COCc1ccccc1)Oc1cc(C(F)(F)F)nnc1-c1ccc(F)c(F)c1 [Compound 1-100]
10: weed control effect, Amaranthus retroflexus (activity level) (Amaranthus retroflexus) | weed control effect, Chenopodiaceae (activity level) (Chenopodiaceae) | weed control effect, Rorippa indica (activity level) (Rorippa indica) | weed control effect, Veronica polita (activity level) (Veronica polita)

COc1ccc(OCC(=O)Oc2cc(C(F)(F)F)nnc2-c2ccc(F)cc2)cc1 [Compound 1-101]
10: weed control effect, Amaranthus retroflexus (activity level) (Amaranthus retroflexus) | weed control effect, Chenopodiaceae (activity level) (Chenopodiaceae) | weed control effect, Rorippa indica (activity level) (Rorippa indica) | weed control effect, Veronica polita (activity level) (Veronica polita)

O=C(Oc1cc(C(F)(F)F)nnc1-c1ccc(Cl)c(Cl)c1)Sc1ccccc1 [Compound 1-102]
10: weed control effect, Amaranthus retroflexus (activity level) (Amaranthus retroflexus) | weed control effect, Chenopodiaceae (activity level) (Chenopodiaceae) | weed control effect, Rorippa indica (activity level) (Rorippa indica) | weed control effect, Veronica polita (activity level) (Veronica polita)

CSc1ccc(-c2nnc(C(F)(F)F)cc2OC(=O)SCCc2ccccc2)cc1 [Compound 1-103]
10: weed control effect, Amaranthus retroflexus (activity level) (Amaranthus retroflexus) | weed control effect, Chenopodiaceae (activity level) (Chenopodiaceae) | weed control effect, Rorippa indica (activity level) (Rorippa indica) | weed control effect, Veronica polita (activity level) (Veronica polita)

O=C(Oc1cc(C(F)(F)F)nnc1-c1ccc(F)c(F)c1)c1ccco1 [Compound 1-104]
10: weed control effect, Amaranthus retroflexus (activity level) (Amaranthus retroflexus) | weed control effect, Chenopodiaceae (activity level) (Chenopodiaceae) | weed control effect, Rorippa indica (activity level) (Rorippa indica) | weed control effect, Veronica polita (activity level) (Veronica polita)

Cn1cccc1C(=O)Oc1cc(C(F)(F)F)nnc1-c1ccccc1 [Compound 1-105]
10: weed control effect, Amaranthus retroflexus (activity level) (Amaranthus retroflexus) | weed control effect, Chenopodiaceae (activity level) (Chenopodiaceae) | weed control effect, Rorippa indica (activity level) (Rorippa indica) | weed control effect, Veronica polita (activity level) (Veronica polita)
